Numbers after ± are expanded uncertainties.
Legend:
[1] = molar heat capacity at constant pressure; settings: 101.33 kPa
[2] = Solid-liquid equilibrium temperature; settings: 101 kPa; Crystal; DTA
[3] = Molar enthalpy of transition or fusion; settings: Crystal

CNC[C@H](O)[C@@H](O)[C@H](O)[C@H](O)CO [(2R,3R,4R,5S)-6-(methylamino)hexane-1,2,3,4,5-pentaol]
molar heat capacity at constant pressure [J/K/mol], [1]
Settings	Crystal	Metastable liquid
290 K	322 ± 80	–
295 K	327 ± 81	–
300 K	333 ± 83	–
305 K	338 ± 84	–
310 K	343 ± 85	–
315 K	348 ± 86	–
320 K	353 ± 88	–
325 K	358 ± 89	–
330 K	362 ± 90	–
335 K	367 ± 91	–
340 K	372 ± 92	–
345 K	377 ± 93	–
350 K	382 ± 95	–
355 K	387 ± 96	–
360 K	392 ± 97	–
365 K	396 ± 98	–
370 K	401 ± 99	–
375 K	406 ± 100	–
380 K	411 ± 100	662 ± 160
385 K	–	664 ± 160
390 K	–	666 ± 160
395 K	–	668 ± 170
400 K	–	670 ± 170
405 K	–	671 ± 170
410 K	–	672 ± 170
415 K	–	673 ± 170
420 K	–	673 ± 170
425 K	–	674 ± 170
430 K	–	676 ± 170
435 K	–	678 ± 170
440 K	–	678 ± 170

Settings	Molar enthalpy of transition or fusion [kcal/mol]	Solid-liquid equilibrium temperature [K]
[2]	–	400.9 ± 0.3
[3]	12.3 ± 4.06	–
